pKi: −log10 of the molar value. Some results are limits rather than exact numbers.

Sequence of purified human Factor XIa (P03951 388-625): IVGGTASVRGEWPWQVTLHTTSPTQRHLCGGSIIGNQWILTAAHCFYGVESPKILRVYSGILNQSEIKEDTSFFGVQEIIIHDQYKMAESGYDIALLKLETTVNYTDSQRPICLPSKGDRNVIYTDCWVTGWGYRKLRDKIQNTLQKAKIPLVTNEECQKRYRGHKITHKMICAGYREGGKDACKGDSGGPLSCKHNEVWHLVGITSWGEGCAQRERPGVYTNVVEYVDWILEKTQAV
Sequence of purified human Factor XIa (P03951 19-387 partner): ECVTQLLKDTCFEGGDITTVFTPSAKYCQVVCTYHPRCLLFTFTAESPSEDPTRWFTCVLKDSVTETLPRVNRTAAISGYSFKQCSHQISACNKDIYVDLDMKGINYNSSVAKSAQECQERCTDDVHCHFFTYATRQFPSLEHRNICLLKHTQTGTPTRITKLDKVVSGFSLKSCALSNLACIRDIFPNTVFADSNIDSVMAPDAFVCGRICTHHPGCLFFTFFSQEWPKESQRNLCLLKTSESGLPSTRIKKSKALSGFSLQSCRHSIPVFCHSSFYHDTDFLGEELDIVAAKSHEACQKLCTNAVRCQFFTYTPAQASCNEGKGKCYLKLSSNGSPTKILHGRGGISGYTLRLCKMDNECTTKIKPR

This assay has as its target purified human Factor XIa (Homo sapiens (Human), UniProt P03951). The assay can be described thus: Factor XIa Assay. The class given is biochemical. The note with it: purified human Factor XIa 40 pM; substrate Z-Gly-Pro-Arg-AFC 100 μM; 50 mM HEPES pH 7.4; read-out: Human FXIa Ki. On the procedure:
The effectiveness of a compound of the present invention as an inhibitor of Coagulation Factor XIa can be determined using a relevant purified serine protease, and an appropriate synthetic substrate. The rate of hydrolysis of the chromogenic or fluorogenic substrate by the relevant serine protease was measured both in the absence and presence of compounds of the present invention. Assays were conducted at rt or at 37° C. […] A decrease in the rate of fluorescence change in the presence of inhibitor is indicative of enzyme inhibition. Such methods are known to one skilled in the art. The results of this assay are expressed as the inhibitory constant, Ki.
Factor XIa determinations were made in 50 mM HEPES buffer at pH 7.4 containing 150 mM NaCl, 5 mM CaCl2, and 0.1% PEG 8000 (polyethylene glycol; JT Baker or Fisher Scientific). Determinations were made using purified human Factor XIa at a final concentration of 40 pM (Sekisui Diagnostics) and he synthetic substrate, Z-Gly-Pro-Arg-AFC, TFA salt (Sigma #C0980) at a concentration of 100 μM.
Times required to achieve equilibration between enzyme and inhibitor were determined in control experiments. Initial velocities of product formation in the absence (Vo) or presence of inhibitor (Vi) were measured. Assuming competitive inhibition, and that unity is negligible compared Km/[S], [I]/e, and [I]/e (where [S], [I], and e respectively represent the total concentrations, of substrate, inhibitor and enzyme), the equilibrium constant (Ki) for dissociation of the inhibitor from the enzyme can be obtained from the dependence of Vo/Vi on [I] shown in the following equation.
In general, pKi refers to the negative decadic logarithm of the Ki, by convention in mol/L. As for `COC(=O)Nc1ccc2c(c1)NC(=O)CCCCC(c1ccc(-c3c(F)ccc(Cl)c3F)cn1)c1cc(F)cc-2c1` (stereo not shown) [Example 53, methyl (9-(5-(3-chloro-2,6-difluorophenyl)pyridin-2-yl)-1^5-fluoro-4-oxo-3-aza-1(1,3),2(1,2)-dibenzenacyclononaphane-2^4-yl)carbamate], the pKi was less than 6.06. Under `O=C1CCCCC(O)(c2ccc(-c3cc(Cl)ccc3-n3cnnn3)c[n+]2[O-])c2nc(c[nH]2)-c2cc(F)ccc2N1` (single isomer, unassigned) [Example 107-a, (Z)-5-(5-Chloro-2-(1H-tetrazol-1-yl)phenyl)-2-(2^5-fluoro-9-hydroxy-4-oxo-1^1H-3-aza-1(4,2)-imidazola-2(1,2)-benzenacyclononaphane-9-yl)pyridine 1-oxide] stands 7.34. For `COC(=O)Nc1ccc2c(c1)NC(=O)C(C)CCCC(c1ccc(-c3c(F)ccc(Cl)c3F)c[n+]1[O-])c1cccc-2c1` (single isomer, unassigned) [Example 50-c, 5-(3-chloro-2,6-difluorophenyl)-2-(2^4-((methoxycarbonyl)amino)-5-methyl-4-oxo-3-aza-1(1,3),2(1,2)-dinenzenacyclononaphane-9-yl)pyridine 1-oxide], the negative-log Ki (pKi) is 6.57. With `COC(=O)Nc1ccc2c(c1)NC(=O)CCCCC(c1ccc(-c3c(F)ccc(Cl)c3F)c[n+]1[O-])c1cnn-2c1` (racemic) [Example 162, (Z)-5-(3-chloro-2,6-difluorophenyl)-2-(2^5-((methoxycarbonyl)amino)-4-oxo-1^1H-3-aza-1(1,4)-pyrazola-2(1,2)-benzenacyclononaphane-9-yl)pyridine 1-oxide] the figure was 8.17. Under `COC(=O)Nc1ccc2c(c1)NC(=O)CCCCC(c1ccc(-c3c(-n4cc(C(F)(F)F)cn4)ccc(Cl)c3F)c[n+]1[O-])c1nc-2c[nH]1` (stereo not shown) [Example 116] stands 6.68; under `COC(=O)Nc1ccc2c(c1)NC(=O)CCCC[C@H](c1ccc(-c3c(-n4cc(C(F)(F)F)cn4)ccc(Cl)c3F)c[n+]1[O-])c1nc-2c(C)[nH]1` (single isomer, unassigned) [Example 135], 6.70. For the compound `O=C1CCCC[C@H](c2ccc(-c3c(F)ccc(Cl)c3F)c[n+]2[O-])c2cccc(c2)-c2c(cnn2C(F)F)N1` (single isomer, unassigned) [Example 171], the pKi is less than 6.06. Under `COC(=O)Nc1ccc2c(c1)NC(=O)C(C)CCCC(c1ccc(-c3c(F)ccc(Cl)c3F)c[n+]1[O-])c1ccc(F)c-2c1` (single isomer, unassigned) [Example 86-c, 5-(3-Chloro-2,6-difluorophenyl)-2-(1^6-fluoro-2^4-((methoxycarbonyl)amino)-5-methyl-4-oxo-3-aza-1(1,3),2(1,2) -dibenzenacyclononaphane-9-yl)pyridine 1-oxide] stands 6.94. Take `CCOC(=O)Nc1ccc2c(c1)NC(=O)CCCC[C@H](c1ccc(-c3c(F)ccc(Cl)c3F)c[n+]1[O-])c1nc-2c(C)[nH]1` (single isomer, unassigned) [Example 134]: the pKi is 9.77.

For the compound `Cn1ncc2c1-c1cccc(c1)C(c1ccc(-c3c(F)ccc(Cl)c3F)c[n+]1[O-])CCCCC(=O)N2` (stereo not shown) [Example 164, 5-(3-chloro-2,6-difluorophenyl)-2-(1^1-methyl-8-oxo-1H-9-aza-1(5,4) -pyrazola-2(1,3)-benzenacyclononaphane-3-Yl)pyridine 1-oxide], the pKi was less than 6.06. Under `COC(=O)Nc1ccc2c(c1)NC(=O)[C@H](C)CCC[C@@H](c1ccc(-c3c(F)cccc3F)c[n+]1[O-])c1nc-2c(C)[nH]1` (single isomer, unassigned) [Example 143-d] stands 7.73. In the case of `COC(=O)Nc1ccc2c(c1)NC(=O)C[C@H]1C[C@@H]1C[C@H](c1ccc(-c3c(F)ccc(Cl)c3F)c[n+]1[O-])c1nc-2c(C)[nH]1` (single isomer, unassigned) [Example 154], the pKi was 9.40. With `O=C(C1CCCCC(c2ccc(-c3cc(Cl)ccc3-n3cnnn3)c[n+]2[O-])c2cccc(c2)-c2cc(F)ccc2N1)N1CCCC1` (single isomer, unassigned) [Example 79-a, 5-(5-Chloro-2-(1H-tetrazol-1-yl)phenyl)-2-(2^5-fluoro-4-(pyrrolidine-1-carbonyl)-3-aza-1(1,3),2(1,2)-dibenzenacyclononaphane-9-yl)pyridine 1-oxide] the figure was 7.32. Take `O=C1CCCC[C@@H](c2ccc(-c3cc(Cl)ccc3-n3cnnn3)cn2)c2cccc(c2)-c2cc(F)ccc2N1` [Example 1-b, (R)-9-(5-(5-Chloro-2-(1H-tetrazol-1-yl)phenyl)pyridin-2-yl)-2^5-fluoro-3-aza-1(1,3),2(1,2)-dibenzenacyclononaphan-4-one]: the pKi was 6.30.

Turning to `COC(=O)Nc1ccc2c(c1)NC(=O)CCCCC(c1ccc(-c3c(F)ccc(Cl)c3F)cn1)c1ccc(F)c-2c1` (stereo not shown) [Example 54, methyl (9-(5-(3-chloro-2,6-difluorophenyl)pyridin-2-yl)-1^6-fluoro-4-oxo-3-aza-1(1,3),2(1,2)-dibenzenacyclononaphane-2^4-yl)carbamate], the pKi was 6.08. Regarding `C[C@H]1CCC[C@H](c2ccc(-c3cc(Cl)ccc3-n3cc(Cl)nn3)c[n+]2[O-])c2cccc(c2)-c2c(cnn2C(F)F)NC1=O` (single isomer, unassigned) [Example 166-c], the pKi is 8.03.

For `COC(=O)Nc1ccc2c(c1)NC(=O)CCCCC(c1ccc(-c3c(F)ccc(Cl)c3F)cn1)c1ccc(F)c-2n1` (stereo not shown) [Example 63, methyl (9-(5-(3-chloro-2,6-difluorophenyl)pyridin-2-yl)-1^3-fluoro-4-oxo-3-aza-1(2,6)-pyridina-2(1,2)-benzenacyclononaphane-2^4-yl)carbamate], the negative logarithm of the Ki (pKi) is less than 6.06. In the case of `COC(=O)Nc1ccc2c(c1)NC(=O)CCCCC(c1ccc(-c3c(F)ccc(Cl)c3F)cn1)c1cc(F)c(F)c-2c1` (stereo not shown) [Example 55, methyl (9-(5-(3-chloro-2,6-difluorophenyl)pyridin-2-yl)-1^5,1^6-difluoro-4-oxo-3-aza-1(1,3),2(1,2)-dibenzenacyclononaphane-2^4-yl)carbamate], the negative logarithm of the Ki (pKi) was less than 6.06. `COC(=O)Nc1ccc2c(c1)NC(=O)CCCC[C@H](c1ccc(-c3c(F)ccc(Cl)c3F)c[n+]1[O-])c1cc(F)cc-2c1` (single isomer, unassigned) [Example 67]: the negative-log Ki (pKi) was 9.26. Take `COC(=O)Nc1ccc2c(c1)NC(=O)C(C)CCCC(c1ccc(-c3c(F)ccc(Cl)c3F)c[n+]1[O-])c1ccc(F)c-2c1` (single isomer, unassigned) [Example 86-b, 5-(3-Chloro-2,6-difluorophenyl)-2-(1^6-fluoro-2^4-((methoxycarbonyl)amino)-5-methyl-4-oxo-3-aza-1(1,3),2(1,2) -dibenzenacyclononaphane-9-yl)pyridine 1-oxide]: the negative logarithm of the Ki (pKi) was 6.11. Turning to `Cn1cc2c(n1)-c1cccc(c1)C(c1ccc(-c3c(F)ccc(Cl)c3F)c[n+]1[O-])CCCCC(=O)N2` (stereo not shown) [Example 163, 5-(3-chloro-2,6-difluorophenyl)-2-(1^1-methyl-8-oxo-1^1H-9-aza-1(3,4) -pyrazola-2(1,3)-benzenacyclononaphane-3-Yl)pyridine 1-oxide], the negative logarithm of the Ki (pKi) was 7.65. Consider `O=C1CCCCC(c2ccc(-c3c(-n4cc(C(=O)O)nn4)ccc(Cl)c3F)cn2)c2cc(ncc2F)-c2cc(F)ccc2N1` (single isomer, unassigned) [Example 91-a], for which the pKi is 7.96.

Values taken from patent publication US10214512B2, “Factor XIA inhibitors” (MERCK SHARP & DOHME CORP., priority 2015, dated 2019).
